Assay results from US10358434B2, “2-(3-pyridinyl)-1H-benzimidazole derivative compound and medicament containing same” (NIHON MEDI-PHYSICS CO., LTD., priority 2014, dated 2019).

Legend:
[1] = Plasma stability evaluation (TLC analysis); type: in vitro ADME; conditions: 37° C., 60 minutes, TLC analysis
In short: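 TLC analysis, using each compound's synthesis conditions, judged stability after methanol was added and samples were centrifuged to remove protein. Beforehand, each tracer had spent 60 minutes at 37° C in pooled heparinized normal human plasma.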

[2] = test system: human adrenal gland section expressing aldosterone-producing adenoma; test: In vitro autoradiography using human adrenal adenoma; type: binding; conditions: section of FIG. 17(b)
In short: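 Autoradiography readout: PSL in equal-sized ROIs over adenoma (B2) and normal adrenal cortex (B1), expressed as B2/B1 and decay-corrected using half-life, applied activity and plate contact time. Tissue was surgically excised human adrenal, frozen and cut at 7 μm, incubated 10 min with 5-33 kBq/mL tracer in BSA-containing PBS, then imaged after 16-20 h exposure.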

[3] = In vivo kinetics experiment (radioactivity distribution); design: species or system Wistar male rat; conditions: rat, caudal vein
In short: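 Tissue radioactivity (% ID/g) and adrenal-to-blood, liver, kidney, small intestine, muscle and fat ratios determined at 10, 30 and 60 min post-dose. Tracers (approximately 1 to 3.7 MBq, saline with 1 w/v % ascorbic acid) injected i.v. into caudal vein of anesthetized 9-week male Wistar rats; organs excised, weighed, counted.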

- Radiochemical purity after incubation in human plasma [1]: 94%
- Adrenal gland/blood ratio of radioactivity accumulation ([3]; 10 min after administration): 52.24 ± 16.82
- Adrenal gland/fat ratio of radioactivity accumulation ([3]; 10 min after administration): 49.21 ± 30.24
- Adrenal gland/kidney ratio of radioactivity accumulation ([3]; 10 min after administration): 3.95 ± 1.50
- Adrenal gland/liver ratio of radioactivity accumulation ([3]; 10 min after administration): 4.37 ± 1.12
- Adrenal gland/muscle ratio of radioactivity accumulation ([3]; 10 min after administration): 34.85 ± 6.45
- Adrenal gland/small intestine ratio of radioactivity accumulation ([3]; 10 min after administration): 3.44 ± 1.04
- Radioactivity distribution Adrenal gland ([3]; 10 min after administration): 10.24 ± 4.48 % ID/g
- Radioactivity distribution Bladder (including urine) ([3]; 10 min after administration): 0.43 ± 0.13 % ID/g
- Radioactivity distribution Blood ([3]; 10 min after administration): 0.13 ± 0.01 % ID/g
- Radioactivity distribution Fat ([3]; 10 min after administration): 0.11 ± 0.01 % ID/g
- Radioactivity distribution Femur ([3]; 10 min after administration): 0.85 ± 0.40 % ID/g
- Radioactivity distribution Heart ([3]; 10 min after administration): 0.65 ± 0.09 % ID/g
- Radioactivity distribution Kidney ([3]; 10 min after administration): 2.09 ± 0.09 % ID/g
- Radioactivity distribution Large intestine ([3]; 10 min after administration): 0.11 ± 0.01 % ID/g
- Radioactivity distribution Liver ([3]; 10 min after administration): 4.09 ± 0.45 % ID/g
- Radioactivity distribution Lung ([3]; 10 min after administration): 0.98 ± 0.16 % ID/g
- Radioactivity distribution Muscle (lower limbs) ([3]; 10 min after administration): 0.18 ± 0.05 % ID/g
- Radioactivity distribution Remaining whole body ([3]; 10 min after administration): 0.24 ± 0.01 % ID/g
- Radioactivity distribution Small intestine ([3]; 10 min after administration): 1.29 ± 0.12 % ID/g
- Radioactivity distribution Spleen ([3]; 10 min after administration): 5.59 ± 1.78 % ID/g
- Radioactivity distribution Stomach ([3]; 10 min after administration): 0.66 ± 0.34 % ID/g
- Radioactivity distribution Testis ([3]; 10 min after administration): 0.04 ± 0.01 % ID/g
- Radioactivity distribution Whole brain ([3]; 10 min after administration): 0.01 ± 0.00 % ID/g
- Adrenal gland/blood ratio of radioactivity accumulation ([3]; 30 min after administration): 199.21 ± 91.92
- Adrenal gland/fat ratio of radioactivity accumulation ([3]; 30 min after administration): 106.15 ± 23.20
- Adrenal gland/kidney ratio of radioactivity accumulation ([3]; 30 min after administration): 12.16 ± 7.12
- Adrenal gland/liver ratio of radioactivity accumulation ([3]; 30 min after administration): 17.77 ± 9.08
- Adrenal gland/muscle ratio of radioactivity accumulation ([3]; 30 min after administration): 98.15 ± 67.95
- Adrenal gland/small intestine ratio of radioactivity accumulation ([3]; 30 min after administration): 3.25 ± 1.07
- Radioactivity distribution Adrenal gland ([3]; 30 min after administration): 15.46 ± 8.64 % ID/g
- Radioactivity distribution Bladder (including urine) ([3]; 30 min after administration): 1.13 ± 0.19 % ID/g
- Radioactivity distribution Blood ([3]; 30 min after administration): 0.10 ± 0.02 % ID/g
- Radioactivity distribution Fat ([3]; 30 min after administration): 0.12 ± 0.03 % ID/g
- Radioactivity distribution Femur ([3]; 30 min after administration): 0.83 ± 0.03 % ID/g
- Radioactivity distribution Heart ([3]; 30 min after administration): 0.64 ± 0.04 % ID/g
- Radioactivity distribution Kidney ([3]; 30 min after administration): 1.65 ± 0.27 % ID/g
- Radioactivity distribution Large intestine ([3]; 30 min after administration): 0.14 ± 0.02 % ID/g
- Radioactivity distribution Liver ([3]; 30 min after administration): 1.89 ± 0.21 % ID/g
- Radioactivity distribution Lung ([3]; 30 min after administration): 0.97 ± 0.10 % ID/g
- Radioactivity distribution Muscle (lower limbs) ([3]; 30 min after administration): 0.16 ± 0.02 % ID/g
- Radioactivity distribution Remaining whole body ([3]; 30 min after administration): 0.27 ± 0.01 % ID/g
- Radioactivity distribution Small intestine ([3]; 30 min after administration): 3.40 ± 0.80 % ID/g
- Radioactivity distribution Spleen ([3]; 30 min after administration): 6.71 ± 0.48 % ID/g
- Radioactivity distribution Stomach ([3]; 30 min after administration): 0.61 ± 0.14 % ID/g
- Radioactivity distribution Testis ([3]; 30 min after administration): 0.05 ± 0.01 % ID/g
- Radioactivity distribution Whole brain ([3]; 30 min after administration): 0.01 ± 0.00 % ID/g
- Adrenal gland/blood ratio of radioactivity accumulation ([3]; 60 min after administration): 235.46 ± 58.57
- Adrenal gland/fat ratio of radioactivity accumulation ([3]; 60 min after administration): 108.45 ± 23.85
- Adrenal gland/kidney ratio of radioactivity accumulation ([3]; 60 min after administration): 13.73 ± 3.51
- Adrenal gland/liver ratio of radioactivity accumulation ([3]; 60 min after administration): 20.07 ± 5.16
- Adrenal gland/muscle ratio of radioactivity accumulation ([3]; 60 min after administration): 124.82 ± 30.33
- Adrenal gland/small intestine ratio of radioactivity accumulation ([3]; 60 min after administration): 2.42 ± 0.71
- Radioactivity distribution Adrenal gland ([3]; 60 min after administration): 18.65 ± 1.67 % ID/g
- Radioactivity distribution Bladder (including urine) ([3]; 60 min after administration): 3.04 ± 1.32 % ID/g
- Radioactivity distribution Blood ([3]; 60 min after administration): 0.06 ± 0.01 % ID/g
- Radioactivity distribution Fat ([3]; 60 min after administration): 0.12 ± 0.04 % ID/g
- Radioactivity distribution Femur ([3]; 60 min after administration): 0.90 ± 0.10 % ID/g
- Radioactivity distribution Heart ([3]; 60 min after administration): 0.56 ± 0.01 % ID/g
- Radioactivity distribution Kidney ([3]; 60 min after administration): 1.23 ± 0.01 % ID/g
- Radioactivity distribution Large intestine ([3]; 60 min after administration): 0.55 ± 0.52 % ID/g
- Radioactivity distribution Liver ([3]; 60 min after administration): 0.96 ± 0.10 % ID/g
- Radioactivity distribution Lung ([3]; 60 min after administration): 0.78 ± 0.03 % ID/g
- Radioactivity distribution Muscle (lower limbs) ([3]; 60 min after administration): 0.14 ± 0.01 % ID/g
- Radioactivity distribution Remaining whole body ([3]; 60 min after administration): 0.28 ± 0.04 % ID/g
- Radioactivity distribution Small intestine ([3]; 60 min after administration): 3.98 ± 1.32 % ID/g
- Radioactivity distribution Spleen ([3]; 60 min after administration): 5.62 ± 1.11 % ID/g
- Radioactivity distribution Stomach ([3]; 60 min after administration): 0.89 ± 0.21 % ID/g
- Radioactivity distribution Testis ([3]; 60 min after administration): 0.05 ± 0.01 % ID/g
- Radioactivity distribution Whole brain ([3]; 60 min after administration): 0.01 ± 0.00 % ID/g
Compound: [123I]c1ccc2nc(-c3cncc(Cn4ccnn4)c3)n(C3CC3)c2c1 [[^123I] 603, 1-Cyclopropyl-2-[3-(1H-1,2,3-triazol-1-ylmethyl)pyridin-5-yl]-6-[^123I]iodo-1H-benzimidazole]
- B2/B1 accumulation ratio [2]: 1.01
- B2 (PSL value, aldosterone-producing adenoma) ([2]; site 71b): 2043
- B1 (PSL value, normal adrenal cortex) ([2]; site 72b): 2027
